{"source": "patent US5674837A", "about": "“Stable bleomycin sulfate solution suitable for injection” (Abbott Laboratories, priority 1994, dated 1997)", "key": {"Mycobacterium smegmatis": {"system": "Mycobacterium smegmatis", "test": "Storage stability of bleomycin sulfate solutions, potency by microbial agar diffusion assay", "type": "physicochemical", "set-up": "first-order degradation rate constant k: unit not given here", "conditions": "for % of Initial Drug Remaining (Potency): 3 U/mL in SWFI, RT", "procedure": "As used herein, \"stable\" or \"stabilizing\" refers to the retention of potency of a bleomycin solution in the range of about 90-120% of its initial starting potency. Potency refers to the amount of antimicrobial activity of the bleomycin solution as determined by microbial assay and is expressed in units of activity. One unit of bleomycin is equivalent in activity to 1 mg of bleomycin A2 reference standard. A2 reference standards are well known to those of ordinary skill in the art and may be purchased from a variety of commercial suppliers. […] The assay is performed as follows:\nii. Plates for potency assay: The number of plates required per assay is dependent on the number of samples to be tested. For all tests, at least 12 plates are required to establish a standard response line (see \"Standard Response Line Solutions\" below) and at least 3 plates are required to determine the potency of each test sample. Plates for potency testing are prepared by evenly distributing a 10 mL base layer of melted Medium 35 to an appropriate number of plastic or glass Petri dishes (20 by 100 millimeters). The layer of base agar medium is poured into each plate on a flat level surface, and a cover placed on each plate in turn; if a nonporous cover is used, the cover is left slightly ajar to prevent accumulation of condensing moisture from the hot agar base layer. After the agar hardens, the nonporous cover is seated on each plate. To prepare the seed layer, an amount of test organism suspension (see \"Test Organism Suspension\" below) is added to a sufficient amount of Medium 35 (which has been melted and cooled to 48° C.-50° C.) to equal a ratio of 1 mL suspension for each 100 mL of medium. The flask is swirled to obtain a homogeneous suspension, and 6 mL of suspension then added to each of the plates containing the uninoculated base agar. The seed layer is spread evenly over the agar surface, covered and allowed to harden on a flat, level surface. After the agar has hardened, 6 cylinders (stainless steel with an outside diameter of 8 millimeters (±0.1 millimeter), an inside diameter of 6 millimeters (±0.1 millimeter), and a length of 10 millimeters (±0.1 millimeter)) are placed on the inoculated agar surface so that they are at approximately 60° intervals on a 2.8 centimeter radius.\nc. Test Organism Suspension: Test organism, Mycobacterium smegmatis (Cat. #607 from the American Type Culture Collection, 12301 Parklawn Dr., Rockville, Md. 20852 ) is maintained on agar slants containing 10 mL of Medium 36 as described above and transferred to a fresh slant about once a week. Slants are Incubated at 37° C. for 48 hours immediately after transfer. To prepare the test organism suspension, 3 mL of sterile USP saline T.S., is used to wash the growth from the agar slant into a 500-mL Edenmeyer flask containing 100 mL of Medium 34 and 50 gm of glass beads. The culture is agitated by rotation at a speed of 130 cycles per minute and a radius of 3.5 centimeters at 37° C. for 5 days. The test organism suspension is stored under refrigeration for a period of up to 2 weeks.\nii. Working Standard Stock Solution: The working standard of bleomycin is prepared as follows: In an atmosphere of about 10 percent relative humidity, about 100 milligrams of a fine powder of the drug is transferred to a tared weighing bottle equipped with a ground-glass stopper. The bottle is weighed and placed in a vacuum oven, with the stopper tilted on its side so that there is no closure during the drying period. The drug is dried at a temperature of 25° C. and a pressure of 5 millimeters of mercury or less for 4 hours. At the end of the drying period, the vacuum oven is filled with air that has been dried by passing it through a drying agent such as sulfuric acid or silica gel. The stopper is replaced and the weighing bottle placed in a desiccator over a desiccating agent, such as phosphorous pentoxide or silica gel, allowed to cool to room temperature, and reweighed."}, "[1]": {"conditions": "cited from earlier work"}, "[2]": {"conditions": "0.1M citrate buffer, 5° C., 3 mo."}, "[3]": {"conditions": "0.1M citrate buffer, 25° C., 2 mo."}, "[4]": {"conditions": "0.1M citrate buffer, 25° C., 3 mo."}, "[5]": {"conditions": "0.1M citrate buffer, 40° C., 1 mo."}, "[6]": {"conditions": "0.1M citrate buffer, 40° C., 2 mo."}, "[7]": {"conditions": "0.1M citrate buffer, 40° C., 3 mo."}}, "note": "Like-named read-outs stand apart in the source and are kept apart here."}
{"substance": "bleomycin", "values": [{"measurement": "shelf-life t90% (time required to reach 90% of the initial potency)", "setting": "Mycobacterium smegmatis; solution in SWFI at RT, estimated from k", "result": "~3.44", "unit": "months"}, {"measurement": "first-order degradation rate constant k", "setting": "Mycobacterium smegmatis; solution in SWFI at RT, from 24 month data", "result": "~0.03058"}, {"measurement": "time stable, reconstituted solutions", "setting": "[1]; 2° C.-8° C.", "result": 4, "unit": "weeks"}, {"measurement": "stability in ointment base", "setting": "[1]; in dermabase or tincture of benzoin", "result": "quite unstable"}, {"measurement": "loss of activity", "setting": "[1]; in petrolatum ointment base, in two years", "result": 7, "unit": "%"}, {"measurement": "time stable in solution", "setting": "[1]; in saline (Dorr et al.)", "result": "up to seven"}, {"measurement": "claimed stability time", "setting": "[1]; multidose premix in sodium chloride, under refrigeration", "result": 100, "unit": "days"}, {"measurement": "time stable, reconstituted solutions", "setting": "[1]; room temperature", "result": 2, "unit": "weeks"}]}
{"substance": "bleomycin sulfate", "values": [{"measurement": "% Potency Remaining", "setting": "Mycobacterium smegmatis; [2]", "result": 107.3, "unit": "%"}, {"measurement": "Potency", "setting": "Mycobacterium smegmatis; [2]", "result": 16.51, "unit": "units per vial"}, {"measurement": "% Potency Remaining", "setting": "Mycobacterium smegmatis; [3]", "result": 104.1, "unit": "%"}, {"measurement": "Potency", "setting": "Mycobacterium smegmatis; [3]", "result": 16.02, "unit": "units per vial"}, {"measurement": "% Potency Remaining", "setting": "Mycobacterium smegmatis; [4]", "result": 95.2, "unit": "%"}, {"measurement": "Potency", "setting": "Mycobacterium smegmatis; [4]", "result": 14.65, "unit": "units per vial"}, {"measurement": "% Potency Remaining", "setting": "Mycobacterium smegmatis; [5]", "result": 87.1, "unit": "%"}, {"measurement": "Potency", "setting": "Mycobacterium smegmatis; [5]", "result": 13.40, "unit": "units per vial"}, {"measurement": "% Potency Remaining", "setting": "Mycobacterium smegmatis; [6]", "result": 83.1, "unit": "%"}, {"measurement": "Potency", "setting": "Mycobacterium smegmatis; [6]", "result": 12.79, "unit": "units per vial"}, {"measurement": "% Potency Remaining", "setting": "Mycobacterium smegmatis; [7]", "result": 59.3, "unit": "%"}, {"measurement": "Potency", "setting": "Mycobacterium smegmatis; [7]", "result": 9.13, "unit": "units per vial"}, {"measurement": "starting concentration (initial potency)", "setting": "Mycobacterium smegmatis; 0.1M citrate buffer", "result": 15.39, "unit": "units per vial"}, {"measurement": "% of Initial Drug Remaining (Potency)", "setting": "Mycobacterium smegmatis; 0 months", "result": 100.0, "unit": "%"}, {"measurement": "% of Initial Drug Remaining (Potency)", "setting": "Mycobacterium smegmatis; 24 months", "result": 48.0, "unit": "%"}, {"measurement": "% Potency Remaining", "setting": "Mycobacterium smegmatis; SWFI, 5° C., 3 mo.", "result": 105.0, "unit": "%"}, {"measurement": "Potency", "setting": "Mycobacterium smegmatis; SWFI, 5° C., 3 mo.", "result": 16.37, "unit": "units per vial"}, {"measurement": "% Potency Remaining", "setting": "Mycobacterium smegmatis; SWFI, 25° C., 2 mo.", "result": 105.1, "unit": "%"}, {"measurement": "Potency", "setting": "Mycobacterium smegmatis; SWFI, 25° C., 2 mo.", "result": 16.38, "unit": "units per vial"}, {"measurement": "% Potency Remaining", "setting": "Mycobacterium smegmatis; SWFI, 25° C., 3 mo.", "result": 101.5, "unit": "%"}, {"measurement": "Potency", "setting": "Mycobacterium smegmatis; SWFI, 25° C., 3 mo.", "result": 15.82, "unit": "units per vial"}, {"measurement": "% Potency Remaining", "setting": "Mycobacterium smegmatis; SWFI, 40° C., 1 mo.", "result": 96.1, "unit": "%"}, {"measurement": "Potency", "setting": "Mycobacterium smegmatis; SWFI, 40° C., 1 mo.", "result": 14.97, "unit": "units per vial"}, {"measurement": "% Potency Remaining", "setting": "Mycobacterium smegmatis; SWFI, 40° C., 2 mo.", "result": 97.7, "unit": "%"}, {"measurement": "Potency", "setting": "Mycobacterium smegmatis; SWFI, 40° C., 2 mo.", "result": 15.22, "unit": "units per vial"}, {"measurement": "% Potency Remaining", "setting": "Mycobacterium smegmatis; SWFI, 40° C., 3 mo.", "result": 63.4, "unit": "%"}, {"measurement": "Potency", "setting": "Mycobacterium smegmatis; SWFI, 40° C., 3 mo.", "result": 9.88, "unit": "units per vial"}, {"measurement": "starting concentration (initial potency)", "setting": "Mycobacterium smegmatis; SWFI", "result": 15.58, "unit": "units per vial"}, {"measurement": "decrease of potency", "setting": "Mycobacterium smegmatis; citrate buffer solution, 3 months storage at 40° C.", "result": "~40", "unit": "%"}, {"measurement": "decrease in stability", "setting": "Mycobacterium smegmatis; citrate solutions, 25° C. and 5° C., 3 months storage", "result": "little if any, decrease in stability"}]}
